Experimental data as given in patent publication US10765754B2, “Compositions and methods related to inhibition of respiratory syncytial virus entry” (priority 2015, dated 2020).
Starred links: 1 amine or outer side, 2 acyl side, 3 side chain; linkers in the order of their positions; H or OH if unused. Positions of bridges follow the written chain, without caps; N, C: chain ends. Non-standard residues stand in square brackets, D forms with d. Residues, ends and D or L forms follow the SMILES beside them. Chains are numbered I, II in the order given. No end group written: not given here. X1 = NCCOCCOCCOCCOCCOCCOCCOCCOCCOCCOCCOCCOCCOCCOCCOCCOCCOCCOCCOCCOCCOCCOCCOCCOCCOCCOCCOCCOCCC(=O)NC(CCC(=O)[*:1])(CCC(=O)[*:2])CCC(=O)[*:3]; X2 = CC(COCCC(=O)[*:1])(COCCC(=O)[*:2])COCCC(=O)[*:3]; PEG6 = NCCOCCOCCOCCOCCOCCOCCC(=O)O

Columns and labels:
RSV-A/IZN45 = biological target: T1, RSV-A/IZN45 (Human respiratory syncytial virus A, UniProt P03420); test: SPR binding to RSV-A IZN45 N-trimer mimic
T1 construct: N-trimer Mimics Synthesized; made in house; host or cells: chemical peptide synthesis
T1 sequence (P03420 163-207, added parts left off): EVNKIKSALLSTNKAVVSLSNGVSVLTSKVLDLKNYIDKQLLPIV
Text: (§1) IZN45 N-trimer mimic comprises the IZ domain, a highly soluble, designed coiled-coil that helps solubilize the N-trimer, along with the C-terminal (bottom) 45 residues of the RSV N-trimer. IZN45 encompasses the full ordered portion of the N-trimer except for three N-terminal residues (removed to maintain a continuous heptad repeat with the IZ domain). The interactions between 35-residue RSV C-peptides, T108 and T118 (Lambert et al., 1996, Proc. Natl. Acad. Sci. USA 93:2186-2191), and IZN45 was examined by surface plasmon resonance (SPR). SPR is a gold standard assay to measure the kinetics and affinity of biological interactions. […] The Biotinylated L-form of RSV target IZN45 was captured onto one lane of a NeutrAvidin coated SPR chip. A mutant version of IZN45 containing four mutated residues along the N-trimer groove designed to disrupt binding (IZN45 Full Mut, negative control) was captured onto a separate lane of the NeutrAvidin chip. T118, corresponding to the C-terminal portion of the RSV F ectodomain, which is known to interact with the RSV N-trimer groove, was flowed over the various surfaces. […] The surfaces were regenerated with a detergent (0.1% SDS) after each injection of analyte. Various concentrations of T118 were measured in duplicate or triplicate injections. D-peptide interactions with IZN45 and IZN45-Full Mut surfaces were also measured using this method.
(§2) Peptides from the ‘winning’ phage clones from each library were synthesized as D-peptides. If solubility of the peptides was limited, N- or C-terminal charged residue(s) (e.g., lysine) were attached as necessary as previously described for HIV peptides in Eckert et al., 1999, Cell 99:103-15, incorporated by reference in its entirety. Binding affinity and kinetics of the D-peptide inhibitors to the IZN45 and IZN45 mutants was characterized by SPR (Biacore 3000), using methods as described in Welch et al., 2007, Proc. Natl. Acad. Sci. USA 104:16828-33, incorporated by reference in its entirety.

RSV-B/IZN45 = biological target: T2, RSV-B/IZN45 (Human respiratory syncytial virus B, UniProt O36634); test: biochemical; format: binding
T2 construct: N-trimer Mimics Synthesized; made in house; host or cells: chemical peptide synthesis
T2 sequence (O36634 163-207, added parts left off): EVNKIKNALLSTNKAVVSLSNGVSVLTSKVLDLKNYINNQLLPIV
Text: as §1, §2

[1] = Kd, subsequent trimer/compound made from peptide, RSV-A/IZN45, SPR
[2] = Kd, synthesized peptide, RSV-A/IZN45, KD determined by SPR
[3] = synthesized peptide, RSV-B/IZN45, KD determined by SPR

| Compound | Kd (RSV-A/IZN45; [2]) [nM] | Kd (RSV-B/IZN45; [3]) [nM] | also measured |
| --- | --- | --- | --- |
| I: Ac-[dI][dS][dL][dP][dT][dP][dT][dW][dW][dP][dS][dT]GG[PEG6][dK]-NH2 / II: Ac-[dI][dS][dL][dP][dT][dP][dT][dW][dW][dP][dS][dT]GG[PEG6][dK]-NH2 / III: Ac-[dI][dS][dL][dP][dT][dP][dT][dW][dW][dP][dS][dT]GG[PEG6][dK]-NH2 (linker I:16-II:16-III:16 via X2; C-terminus assumed) [Ac-X12-45-GG(PEG6)K-trimer] | – | – | Kd (RSV-A/IZN45; KD, FIG. 10A, RSV-A version of IZN45): 49 nM; Kd (RSV-A/IZN45; [1]): 53 nM; Kd (RSV-B/IZN45; FIG. 10B, RSV-B version of IZN45): 66 nM |
| I: [dK]G[dR][dW][dF][dE][dL][dP][dE][dP][dE][dW][dW]G[PEG6][dK]G[dK]G-NH2 / II: [dK]G[dR][dW][dF][dE][dL][dP][dE][dP][dE][dW][dW]G[PEG6] / III: [dK]G[dR][dW][dF][dE][dL][dP][dE][dP][dE][dW][dW]G[PEG6] (amide I:16-II:C, I:18-III:C) [KG-RSVP7-G(PEG6)-Tricasso] | ~20 | – | – |
| I: H-[dR][dW][dF][dE][dL][dP][dE][dP][dD][dW][dW]G[dK][PEG6][dK]G[dK]G-NH2 / II: H-[dR][dW][dF][dE][dL][dP][dE][dP][dD][dW][dW]G[dK][PEG6] / III: H-[dR][dW][dF][dE][dL][dP][dE][dP][dD][dW][dW]G[dK][PEG6] (amide I:15-II:C, I:17-III:C) [RSVP1-GK(PEG6)-Tricasso] | ~20 | – | – |
| I: Ac-[dK][PEG6]G[dA][dC][dT][dN][dR][dA][dE][dW][dL][dI][dD][dW][dC][dA][dA]-NH2 / II: Ac-[dK][PEG6]G[dA][dC][dT][dN][dR][dA][dE][dW][dL][dI][dD][dW][dC][dA][dA]-NH2 / III: Ac-[dK][PEG6]G[dA][dC][dT][dN][dR][dA][dE][dW][dL][dI][dD][dW][dC][dA][dA]-NH2 (linker I:1-II:1-III:1 via X1; disulfide I:5-I:16, II:5-II:16, III:5-III:16; C-terminus assumed) [Ac-K(PEG6)-RSVP21-trimer] | – | – | Kd (RSV-A/IZN45; [1]): 0.3 nM; Kd (RSV-B/IZN45; subsequent trimer/compound made from peptide, RSV-B/IZN45, SPR): 1.8 nM |
| I: H-[dK]G[dR][dW][dF][dE][dL][dP][dE][dP][dD][dW][dW]G[PEG6][dK]G[dK]G-NH2 / II: H-[dK]G[dR][dW][dF][dE][dL][dP][dE][dP][dD][dW][dW]G[PEG6] / III: H-[dK]G[dR][dW][dF][dE][dL][dP][dE][dP][dD][dW][dW]G[PEG6] (amide I:16-II:C, I:18-III:C) [KG-RSVP1-G(PEG6)-Tricasso] | ~20 | – | – |
| CC[C@@H](C)[C@@H](N)C(=O)N[C@H](CO)C(=O)N[C@H](CC(C)C)C(=O)N1CCC[C@@H]1C(=O)N[C@@H](C(=O)N1CCC[C@@H]1C(=O)N[C@@H](C(=O)N[C@H](Cc1c[nH]c2ccccc12)C(=O)N[C@H](Cc1c[nH]c2ccccc12)C(=O)N1CCC[C@@H]1C(=O)N[C@H](CO)C(=O)N[C@@H](C(=O)NCC(=O)NCC(N)=O)[C@H](C)O)[C@H](C)O)[C@H](C)O [X12-45-GG] (H-[dI][dS][dL][dP][dT][dP][dT][dW][dW][dP][dS][dT]GG-NH2) | – | 11000 | – |
| CSCC[C@@H](NC(=O)[C@@H](CO)NC(=O)CNC(=O)[C@@H](CC(=O)O)NC(=O)[C@@H](CC(=O)O)NC(=O)CCOCCOCCOCCOCCOCCOCCNC(=O)[C@@H](CCCCN)NC(C)=O)C(=O)N[C@@H]1CSSC[C@H](C(=O)NCC(=O)N[C@@H](C(N)=O)[C@H](C)O)NC(=O)[C@@H](Cc2c[nH]c3ccccc23)NC(=O)[C@@H](CC(=O)O)NC(=O)[C@@H](CC(C)C)NC(=O)[C@@H](CC(C)C)NC(=O)[C@@H](Cc2c[nH]c3ccccc23)NC(=O)[C@@H](CCC(=O)O)NC(=O)[C@H]2CCCN2C(=O)[C@@H](CCCNC(=N)N)NC(=O)[C@@H](CC(N)=O)NC(=O)[C@@H](C(C)C)NC1=O [Ac-K(PEG6)DDG-RSVP24] (Ac-[dK][PEG6][dD][dD]G[dS][dM][dC][dV][dN][dR][dP][dE][dW][dL][dL][dD][dW][dC]G[dT]-NH2; disulfide 8-19) | 2100 | 1800 | – |
| CSCC[C@@H](NC(=O)[C@@H](Cc1c[nH]c2ccccc12)NC(=O)[C@@H](Cc1c[nH]c2ccccc12)NC(=O)[C@@H](Cc1ccc(O)cc1)NC(=O)[C@@H](CCCCN)NC(=O)[C@@H](CC(C)C)NC(=O)[C@@H](CO)NC(C)=O)C(=O)N[C@H](CCC(=O)O)C(=O)N[C@H](CCC(=O)O)C(=O)N[C@H](CC(C)C)C(=O)N1CCC[C@@H]1C(=O)N[C@H](CC(C)C)C(=O)N1CCC[C@@H]1C(=O)N[C@H](CCCCN)C(=O)N[C@H](Cc1c[nH]c2ccccc12)C(=O)N[C@H](Cc1c[nH]c2ccccc12)C(N)=O [Ac-X16-18] (Ac-[dS][dL][dK][dY][dW][dW][dM][dE][dE][dL][dP][dL][dP][dK][dW][dW]-NH2) | – | 11000 | – |
| CC(C)C[C@H]1NC(=O)[C@@H](CC(=O)O)NC(=O)[C@@H](Cc2c[nH]c3ccccc23)NC(=O)[C@@H]([C@H](C)O)NC(=O)[C@@H](Cc2c[nH]cn2)NC(=O)[C@H](NC(=O)[C@@H](C)NC(=O)CN)CSSC[C@H](C(=O)N[C@H](C)C(=O)N[C@H](C)C(=O)NCC(=O)N[C@H](CCCCN)C(N)=O)NC(=O)[C@@H](C(C)C)NC(=O)[C@@H](CC(=O)O)NC(=O)[C@@H](CC(C)C)NC(=O)[C@@H](Cc2c[nH]cn2)NC(=O)[C@@H](CC(N)=O)NC1=O [CX10C-86-GK] (H-G[dA][dC][dH][dT][dW][dD][dL][dN][dH][dL][dD][dV][dC][dA][dA]G[dK]-NH2; disulfide 3-14) | – | 350000 | – |
| CSCC[C@@H](NC(=O)[C@@H](Cc1c[nH]c2ccccc12)NC(=O)[C@@H](Cc1c[nH]c2ccccc12)NC(=O)[C@@H](Cc1ccc(O)cc1)NC(=O)[C@@H](CCCCN)NC(=O)[C@@H](CC(C)C)NC(=O)[C@H](N)CO)C(=O)N[C@H](CCC(=O)O)C(=O)N[C@H](CCC(=O)O)C(=O)N[C@H](CC(C)C)C(=O)N1CCC[C@@H]1C(=O)N[C@H](CC(C)C)C(=O)N1CCC[C@@H]1C(=O)N[C@H](CCCCN)C(=O)N[C@H](Cc1c[nH]c2ccccc12)C(=O)N[C@H](Cc1c[nH]c2ccccc12)C(=O)NCC(=O)NCC(N)=O [X16-18-GG] (H-[dS][dL][dK][dY][dW][dW][dM][dE][dE][dL][dP][dL][dP][dK][dW][dW]GG-NH2) | – | 24000 | – |
| CC[C@@H](C)[C@@H](NC(=O)[C@H](NC(=O)[C@@H](CCCCN)NC(=O)[C@H](N)CO)C(C)C)C(=O)N[C@H](CC(C)C)C(=O)N1CCC[C@@H]1C(=O)N[C@H](CCC(=O)O)C(=O)N1CCC[C@@H]1C(=O)N[C@H](Cc1ccccc1)C(=O)N[C@H](Cc1c[nH]c2ccccc12)C(=O)N[C@H](Cc1c[nH]c2ccccc12)C(=O)N1CCC[C@@H]1C(N)=O [X12-47] (H-[dS][dK][dV][dI][dL][dP][dE][dP][dF][dW][dW][dP]-NH2) | – | 10000 | – |
